We go through four compounds from US8779156B2, “Analogues for the treatment or prevention of flavivirus infections” (Vertex Pharmaceuticals Incorporated, priority 2010, dated 2014).

The test system of assay [1] is HCV (1b) replicon, Huh-ET cells. In words: Cell-based luciferase reporter HCV (1b) RNA replication assay. The note with it: Hepatitis C virus; for EC50: 96 h, HCV 1b replicon, luciferase, 4 days incubation, read-out: EC50_1b; for IC50: sub-genomic replicon 1b cell line. The source says: Cell-Based Luciferase Reporter HCV (Ib) RNA Replication Assay Cell Culture
Replicon cell lines Huh-5.2 are derived from the Huh-7 hepatocarcinoma cell line are maintained in culture as generally described in Krieger, N; Lohmann, V; Bartenschlager, R. Enhancement of hepatitis C virus RNA replication by cell culture-adaptive mutations. J. Virol. 2001, 75, 4614-4624. The Huh-5.2 cells contain the highly cell culture-adapted replicon I389luc-ubi-neo/NS3-375.1 construct that carries, in addition to the neomycin gene, an integrated copy to the firefly luciferase gene (Krieger, N; Lohmann, V; Bartenschlager, R. Enhancement of hepatitis C virus RNA replication by cell culture-adaptive mutations. J. Virol. 2001, 75, 4614-4624). This cell line allows measurement of HCV RNA replication and translation by measuring luciferase activity. It has been previously shown that the luciferase activity tightly follows the replicon RNA level in these cells (Krieger, N; Lohmann, V; Bartenschlager, R. Enhancement of hepatitis C virus RNA replication by cell culture-adaptive mutations. J. Virol. 2001, 75, 4614-4624). The Huh-ET cell line has the same features as those mentioned for Huh-5.2 cell line, except that ET cells are more robust and contain an adaptative mutation in the HCV NS4B gene instead of NS5A. Both cell lines are maintained in cultures at a sub-confluent level (<85%) as the level of replicon RNA is highest in actively proliferating cells. The culture media used for cell passaging consist of DMEM (Gibco BRL Laboratories, Mississauga, ON, Canada) supplemented with 10% foetal bovine serum with 1% penicilin/streptomycin, 1% glutamine, 1% sodium pyruvate, 1% non-essential amino acids, and 180 μg/ml of G418 final concentration. Cells are incubated at 37° C., in an atmosphere of 5% CO2 and passaged twice a week to maintain sub-confluence.
Approximately 3000 viable Huh-ET cells (100 μl) are plated per well in a white opaque 96-well microtiter plate. The cell culture media used for the assay is the same as described above except that it contains no G418 and no phenol red. After an incubation period of 3-4 hours at 37° C. in a 5% CO2 incubator, compounds (100 μl) are added at various concentrations. Cells are then further incubated for 4 days at 37° C. in a 5% CO2 incubator. Thereafter, the culture media is removed and cells are lysed by the addition of 95 μL of the luciferase buffer (luciferin substrate in buffered detergent). Cell lysates are incubated at room temperature and protected from direct light for at least 10 minutes. Plates are read for luciferase counts using a luminometer (Wallac MicroBeta Trilux, Perkin Elmer™, MA, USA).
Curves are fitted to data points using nonlinear regression analysis, and IC50s are interpolated from the resulting curve using GraphPad Prism software, version 2.0 (GraphPad Software Inc., San Diego, Calif., USA).

The test system of assay [2] is sub-genomic HCV replicon of genotype 1a (cell line W11.8). Nature of the assay: Activity determination using the ELISA and the sub-genomic replicon 1a cell line (NS5A protein level). Format: cell-based. The following applies: Hepatitis C virus. The source says:
Activity Determination Using the ELISA and the Sub-Genomic Replicon 1a Cell Line
The cell line W11.8 containing the sub-genomic HCV replicon of genotype 1a is used to determine the potency of the drugs. The RNA replication in presence of different drug concentrations is indirectly measured in this cell line by the level of NS5A protein content upon drug treatment for four days. It is shown that the level of the NS5A protein correlates well with the level of HCV RNA in the replicon cell line. Cells are split twice a week in order to keep the confluence state below 85% of the culture flask surface area. The culture media used for cell passaging consists of DMEM-10% foetal bovine serum with 100 UI/mL penicillin, 100 μg/mL streptomycin, 2 mM glutamine, 1 mM sodium pyruvate, non-essential amino acids (1×) and 600 μg/mL of G418 final concentrations. Monolayer of the W11.8 cells is trypsinized and cells are counted. Cells are diluted at 50,000 cells/mL with complete DMEM without G418, then approximately 5,000 viable cells (100 μL) are plated per well in a white opaque 96-well microtiter plate. After an incubation period of 2-4 hours at 37° C. in a 5% CO2 incubator, compounds are added at various concentrations. Drugs are resuspended in DMSO at a stock concentration of 10 mM. Then, drugs are serially diluted at twice the final concentration in the same medium. One volume (100 μL) of each drug dilution is then added to each well that contains cells. A control compound is used as an internal standard for each plate assay. Sixteen wells are used as control (0% inhibition) without drug. […] Values from 100% inhibited wells were averaged and used as the background value. Cells are further incubated for four days at 37° C. in a 5% CO2 incubator. Following the incubation time of four days, the media is removed and wells are washed once with 150 μL of PBS at room temperature for five minutes. Cells are then fixed for five minutes using 150 μL per well of cold (−20° C.) fixative solution (50% methanol/50% acetone mix). Cells are then washed twice with 150 μL of PBS (phosphate buffered saline) per well, following the addition of 150 μL of blocking solution, cells are incubated for one hour at 37° C. to block non-specific sites. The blocking solution is removed and cells are washed twice with 150 μL of PBS per well and once with 150 μL of PBSTS solution (PBS/0.1% Triton X-100/0.02% SDS) per well. […] Then, substrate solution (100 μl, SuperSignal ELISA Pico Chemiluminescent Substrate, Fisher Cat. No. 37069) is added in each well and plates are incubated 60 minutes at room temperature prior to reading the luminescence (relative light units) on the Analyst HT plate reader. The percentage of inhibition at each drug concentration tested (in duplicate) is calculated.
Background: In an ELISA, binding on a coated surface is turned into a signal by an enzyme label.

Regarding `COC(=O)NC(C(=O)N1[C@@H](C)CC[C@H]1c1nc2cc(-c3ccc(-c4ccc(-c5cnc([C@@H]6CC[C@H](C)N6C(=O)[C@@H](NC(=O)OC)C(C)C)[nH]5)cc4)cc3)ccc2[nH]1)C(C)C` (stereo partly drawn) [Compound 13, Methyl N-[(1S)-1-[(2S,5S)-2-[4-[4-[4-[2-[(2S,5S)-1-[2-(methoxycarbonylamino)-3-methyl-butanoyl]-5-methyl-pyrrolidin-2-yl]-1H-benzimidazol-5-yl]phenyl]phenyl]-1H-imidazol-2-yl]-5-methyl-pyrrolidine-1-carbonyl]-2-methyl-propyl]carbamate], in assay [1], the EC50 is not above 5 nM and the IC50 (as a rule, the midpoint of a concentration-inhibition curve) worked out at 2.6 pM. Also, in assay [2], the midpoint of inhibition, the IC50, lay at 36 pM.

With `COC(=O)N[C@H](C(=O)N1C[C@@H](C)C[C@H]1c1nc(-c2ccc(-c3ccc(-c4ccc5[nH]c([C@@H]6CC[C@H](C)N6C(=O)[C@@H](NC(=O)OC)C(C)C)nc5c4)cc3)cc2)c[nH]1)C(C)C` [Compound 18], the EC50 in assay [1] was not above 5 nM. Also, the IC50 in assay [1] and in assay [2] was 8.5 pM throughout.

As for `COC(=O)N[C@H](C(=O)N1C[C@@H](C)C[C@H]1c1nc(-c2ccc(-c3ccc(-c4ccc5nc([C@@H]6C[C@H](C)CN6C(=O)[C@@H](NC(=O)OC)C(C)C)[nH]c5c4)cc3)cc2)c[nH]1)C(C)C` [Compound 5, ((S)-1-{(2S,4S)-2-[5-(4′-{2-[(2S,4S)-1-((S)-2-Methoxycarbonylamino-3-methyl-butyryl)-4-methyl-pyrrolidin-2-yl]-1H-imidazol-4-yl}-biphenyl-4-yl)-1H-benzoimidazol-2-yl]-4-methyl-pyrrolidine-1-carbonyl}-2-methyl-propyl)-carbamic acid methyl ester], the EC50 in assay [1] is not above 5 nM. Further, the IC50 was found to be 5 pM in assay [1] and 4.1 pM in assay [2].

Turning to `COC(=O)N[C@H](C(=O)N1CCC[C@H]1c1ncc(-c2ccc(-c3ccc(-c4ccc5[nH]c([C@@H]6CCCN6C(=O)[C@@H](NC(=O)OC)C(C)C)nc5c4)cc3)cc2)[nH]1)C(C)C` [Compound 4, ((S)-1-{(S)-2-[5-(4′-{2-[(S)-1-((S)-2-Methoxycarbonylamino-3-methyl-butyryl)-pyrrolidin-2-yl]-3H-benzoimidazol-5-yl}-biphenyl-4-yl)-1H-imidazol-2-yl]-pyrrolidine-1-carbonyl}-2-methyl-propyl)-carbamic acid methyl ester], the EC50 in assay [1] was not above 5 nM. Also, the figures for the half-inhibitory concentration (IC50) in assay [1] and in assay [2] were 13 pM and 140 pM, respectively.
